In patent US11701376B2, “Nutritional compositions comprising human milk oligosaccharides and nucleotides and uses thereof for treating and/or preventing enteric viral infection” (priority 2010, dated 2023):

Key:
interleukin 10 (IL-10) = experiment: IL-10 in supernatants of peripheral blood mononuclear cells with or without RSV (Example 49); type: cell-based, Human; conditions: in the presence or absence of RSV
Method: (§1) Specifically, either 3′SL or 6′SL is added, at concentrations of 0.1 mg/mL, 0.2 mg/mL, or 0.5 mg/mL to fresh peripheral blood mononuclear cells and incubated at 37° C. in 5% CO2 to pretreat the cells for approximately 24 hours. LNnT is added, at concentrations of 0.1 mg/mL, 0.2 mg/mL, or 1 mg/mL to fresh peripheral blood mononuclear cells and incubated at 37° C. in 5% CO2 to pretreat the cells for approximately 24 hours. Lactose is included as a carbohydrate control. Matched endotoxin unit concentration controls are included to allow differentiation of ingredient effects from inherent low levels of endotoxin. Some variables are then incubated with RSV at a multiplicity of infection (MOI) of 0.1 for approximately 1 hour at 37° C. in 5% in CO2. Uninfected control variables are incubated with medium for approximately 1 hour at 37° C. in 5% CO2. Supernatants are collected at 24 and 48 hours post-infection.
Cytokines are measured in supernatants for each variable at 24 and 48 hours to assess the effects of HMOs on the early immune response to RSV. Cytokines are measured using custom Bio-Plex Human cytokine kits from Bio-Rad. […] A positive correlation exists between RSV clinical disease severity in children (as measured by: length of hospital stay, fever, and number of days supplemental O2 is required) and serum IP-10. […]

H1N1 influenza virus [1] = type: cell-based; conditions: for IC50 (mg HMO/mL) H1N1 Influenza: co-incubation of virus with HMO at 1 or 10 mg/mL
[2] = tested on: respiratory syncytial virus (RSV); experiment: In vitro inhibition of viral infectivity, RSV (Example 46); type: cell-based; conditions: co-incubation of virus with HMO at 1 or 10 mg/mL
Method: In this Example, the effect of purified human milk oligosaccharides (HMO) on in vitro inhibition of viral infectivity is analyzed.
Samples are prepared by co-incubation of a uniform virus dose of from about 500 units/mL to about 1,000 units/mL of one of three respiratory viruses: (1) respiratory syncytial virus (RSV); (2) human parainfluenza virus (HPIV3); or (3) H1N1 influenza virus with one of the following HMOs: (1) 3′-sialyllactose (3′SL); (2) 6′-sialyllactose (6′SL); (3) 3′-fucosyllactose (3′FL); (4) 2′-fucosyllactose (2′FL); (5) lacto-N-neotetraose (LNnT); or (6) sialic acid (SA). The HMOs are added at concentrations of either 1 mg/mL or 10 mg/mL.

[3] = tested on: monocyte-derived cytokines; experiment: Monocyte-derived cytokines in peripheral blood mononuclear cells with or without RSV (Example 49); type: cell-based, Human
Method: as §1
(§2) Cytokines are measured in supernatants for each variable at 24 and 48 hours to assess the effects of HMOs on the early immune response to RSV. Cytokines are measured using custom Bio-Plex Human cytokine kits from Bio-Rad. Results for interferon-inducible protein 10 (IP-10, also known as CXCL 10) are shown in FIGS. 3 and 4 for 3′SL and 6′SL, and in FIGS. 5 and 6 for LNnT. IP-10 is a CXC chemokine that attracts, binds to and activates the CXCR3 receptor on natural killer cells and memory T cells. IP-10 is expressed by monocytes and a number of other cells, and is induced by interferon. A positive correlation exists between RSV clinical disease severity in children (as measured by: length of hospital stay, fever, and number of days supplemental O2 is required) and serum IP-10. Therefore, a decrease in IP-10 signals a decrease in severity of RSV disease experienced.

[4] = tested on: interferon-inducible protein 10 (IP-10); experiment: IP-10 in supernatants of RSV-infected peripheral blood mononuclear cells (Example 49); type: cell-based, Human; conditions: for IP-10 in virus-infected variables, both donors: RSV MOI 0.1, 0.1-0.5 mg/mL (LNnT 0.1-1 mg/mL); for IP-10 level relative to uninfected controls: RSV-infected PBMC; for dampening virus-induced inflammation as measured by a decrease in IP-10, comparison: compared with 3′SL; for reducing inflammation caused by RSV: pretreatment for 24 hours
Method: as §1, §2

rotavirus = experiment: NSP4 mRNA expression in rotavirus-treated ileal loops of piglets (Example 50); type: in vivo; conditions: HMO about 2 mg/mL plus rotavirus, 6 hours, vs RV and media
Method: Specifically, HMO and nucleotide treatment within the ileal lumen of both healthy and acutely rotavirus-infected piglets is analyzed.
Two groups of piglets (both n=9) are fed from age 48 hours to age 21 days either a low nucleotide formula comprising about 72 mg/L of a nucleotide mixture or a high nucleotide formula comprising about 320 mg/L of a nucleotide mixture.
At day 21, a midline laparotomy is performed and six loops of ilium are isolated in situ. Each loop is about 10 cm long and is followed by an inter-loop segment of about 2 cm. […]
The following treatments are injected into the loops: media; LNnT; an acidic HMO mixture comprising about 40 wt % 6′SL, about 10 wt % 3′SL, and about 50 wt % sialic acid; media and rotavirus; LNnT and rotavirus; and the acidic HMO mixture comprising about 40 wt % 6′SL, about 10 wt % 3′SL, and about 50 wt % sialic acid and rotavirus. […] Each loop is treated for 6 hours, and post-treatment reverse transcriptase products from ilium mucosal cells are analyzed by quantitative real-time PCR in TaqMan gene expression assays of the target genes NSP4, IL-8, and TNF-α. […] The expression levels of genes of interest are standardized to RPL19 mRNA and expressed as fold differences which correspond to a ratio to the mean value for the control group.

[5] = tested on: human parainfluenza virus (HPIV3); type: cell-based; conditions: co-incubation of virus with HMO at 1 or 10 mg/mL
H1N1 influenza virus [6] = type: cell-based; conditions: HMO at 10 mg/mL, MDCK cells, FIG. 1
[7] = in the presence or absence of the virus

Row | Compound | IL-10 concentration (interleukin 10 (IL-10)) | IC50 (mg HMO/mL) H1N1 Influenza (H1N1 influenza virus [1]) [mg HMO/mL] | IC50 (mg HMO/mL) RSV [2] [mg HMO/mL] | immunomodulation, production of monocyte-derived cytokines [3, 7] | IP-10 in virus-infected variables, both donors ([4]; 24 hours pretreatment) | IP-10 level relative to uninfected controls [4] | dampening virus-induced inflammation as measured by a decrease in IP-10, comparison [4] | reducing inflammation caused by RSV [4] | NSP4 expression (rotavirus; high nucleotide formula fed group (about 320 mg/L)) | NSP4 expression (rotavirus; low nucleotide formula fed group (about 72 mg/L)) | IC50 (mg HMO/mL) HPIV3 [5] [mg HMO/mL] | anti-viral activity, H1N1 influenza virus (H1N1 influenza virus [1]; HMO at 1 mg/mL) | RSV-induced IP-10, Donor B ([4]; Donor B, 24 hours pretreatment, RSV MOI 0.1) | RSV-induced IP-10, Donor E ([4]; Donor E, 24 hours pretreatment, RSV MOI 0.1) | inhibition of virus infectivity (H1N1 influenza virus [6]) | immunomodulation, production of monocyte-derived cytokines ([3]; in the absence of the virus)
1 | CC(=O)N[C@H]1[C@H](O[C@H]2[C@@H](O)[C@@H](CO)O[C@@H](O[C@H]3[C@H](O)[C@@H](O)C(O)O[C@@H]3CO)[C@@H]2O)O[C@H](CO)[C@@H](O[C@@H]2O[C@H](CO)[C@H](O)[C@H](O)[C@H]2O)[C@@H]1O (mixture of isomers) [LNnT, lacto-N-neotetraose] | increases IL-10 concentration in a dose-dependent manner | >10 | >10 | immunomodulatory | clearly downregulates IP-10 | reduce IP-10 to levels found in uninfected controls | more effective than 3′SL | effective in reducing inflammation caused by RSV | reduced NSP4 expression | reduced NSP4 expression | – | – | – | – | – | –
2 | CC(=O)N[C@H]1[C@H]([C@H](O)[C@H](O)CO)O[C@@](O[C@H]2[C@@H](O)[C@@H](CO)O[C@@H](O[C@H]3[C@H](O)[C@@H](O)C(O)O[C@@H]3CO)[C@@H]2O)(C(=O)O)C[C@@H]1O (some centres unmarked) [3′SL, 3′-sialyllactose] | – | ~5 | >10 | immunomodulatory | dampen RSV-induced IP-10 | – | – | effective in reducing inflammation caused by RSV | – | – | >10 | inhibited | not effective | downregulates RSV-induced IP-10 | – | –
3 | CC(=O)N[C@H]1[C@H]([C@H](O)[C@H](O)CO)O[C@@](OC[C@H]2O[C@@H](O[C@H]3[C@H](O)[C@@H](O)[C@H](O)O[C@@H]3CO)[C@H](O)[C@@H](O)[C@H]2O)(C(=O)O)C[C@@H]1O [6′SL, 6′-sialyllactose] | increases interleukin 10 (IL-10) concentration in a dose-dependent manner | ~10 | >10 | – | clearly downregulates IP-10 | reduce IP-10 to levels found in uninfected controls | more effective than 3′SL | effective in reducing inflammation caused by RSV | – | – | >10 | – | – | – | approximately 60% | immunomodulatory
